ChEMBL document CHEMBL4346657, “Anticancer activity, dual prooxidant/antioxidant effect and apoptosis induction profile of new bichalcophene-5-carboxamidines” (Eur J Med Chem, 2019)
Active and inactive are the calls of the source. The calls are words filed in the database; no cut-off is given here.

Tests used:
WI-38 = test: Cytotoxicity activity against human WI38 cells assessed as reduction in cell viability measured after 48 hrs by MTT assay; format: cell-based; settings: WI-38, 48 h
MDA-MB-231 = test: Antiproliferative activity against human MDA-MB-231/ATCC cells assessed as growth inhibition after 48 hrs by sulforhodamine B assay; format: functional; settings: MDA-MB-231, 48 h
OVCAR-3 = test: Antiproliferative activity against human OVCAR3 cells assessed as growth inhibition after 48 hrs by sulforhodamine B assay; format: functional; settings: OVCAR-3, 48 h
MCF7 = test: Antiproliferative activity against human MCF7 cells assessed as growth inhibition after 48 hrs by sulforhodamine B assay; format: functional; settings: MCF7, 48 h
[1] = system: Panel NCI-60 (60 carcinoma cell lines); test: Antiproliferative activity against human NCI60 cells assessed as growth inhibition at 10 uM after 48 hrs by sulforhodamine B assay; format: functional; settings: read-out: GI
DU-145 = test: Antiproliferative activity against human DU145 cells assessed as growth inhibition after 48 hrs by sulforhodamine B assay; format: functional; settings: DU-145, 48 h
SN12C = test: Antiproliferative activity against human SN12C cells assessed as growth inhibition after 48 hrs by sulforhodamine B assay; format: functional
RXF 393 = test: Antiproliferative activity against human RXF393 cells assessed as growth inhibition after 48 hrs by sulforhodamine B assay; format: functional; settings: RXF 393, 48 h
CAKI-1 = test: Antiproliferative activity against human CAKI-1 cells assessed as growth inhibition after 48 hrs by sulforhodamine B assay; format: functional; settings: CAKI-1, 48 h
SK-OV-3 = test: Antiproliferative activity against human SKOV3 cells assessed as growth inhibition after 48 hrs by sulforhodamine B assay; format: functional; settings: SK-OV-3, 48 h
OVCAR-5 = test: Antiproliferative activity against human OVCAR5 cells assessed as growth inhibition after 48 hrs by sulforhodamine B assay; format: functional; settings: OVCAR-5, 48 h
UACC-62 = test: Antiproliferative activity against human UACC62 cells assessed as growth inhibition after 48 hrs by sulforhodamine B assay; format: functional; settings: UACC-62, 48 h
UACC-257 = test: Antiproliferative activity against human UACC257 cells assessed as growth inhibition after 48 hrs by sulforhodamine B assay; format: functional; settings: UACC-257, 48 h
SK-MEL-2 = test: Antiproliferative activity against human SK-MEL-2 cells assessed as growth inhibition after 48 hrs by sulforhodamine B assay; format: functional; settings: SK-MEL-2, 48 h
M14 = test: Antiproliferative activity against human M14 cells assessed as growth inhibition after 48 hrs by sulforhodamine B assay; format: functional; settings: M14, 48 h
Malme-3M = test: Antiproliferative activity against human MALME-3M cells assessed as growth inhibition after 48 hrs by sulforhodamine B assay; format: functional
LOX IMVI = test: Antiproliferative activity against human LOXIMVI cells assessed as growth inhibition after 48 hrs by sulforhodamine B assay; format: functional
SNB-75 = test: Antiproliferative activity against human SNB75 cells assessed as growth inhibition after 48 hrs by sulforhodamine B assay; format: functional; settings: SNB-75, 48 h
SNB-19 = test: Antiproliferative activity against human SNB19 cells assessed as growth inhibition after 48 hrs by sulforhodamine B assay; format: functional; settings: SNB-19, 48 h
SF-539 = test: Antiproliferative activity against human SF539 cells assessed as growth inhibition after 48 hrs by sulforhodamine B assay; format: functional; settings: SF-539, 48 h
SF-268 = test: Antiproliferative activity against human SF268 cells assessed as growth inhibition after 48 hrs by sulforhodamine B assay; format: functional; settings: SF-268, 48 h
NCI-H460 = test: Antiproliferative activity against human NCI-H460 cells assessed as growth inhibition after 48 hrs by sulforhodamine B assay; format: functional; settings: NCI-H460, 48 h
NCI-H23 = test: Antiproliferative activity against human NCI-H23 cells assessed as growth inhibition after 48 hrs by sulforhodamine B assay; format: functional; settings: NCI-H23, 48 h
HOP-62 = test: Antiproliferative activity against human HOP62 cells assessed as growth inhibition after 48 hrs by sulforhodamine B assay; format: functional; settings: HOP-62, 48 h
SR = test: Antiproliferative activity against human SR cells assessed as growth inhibition after 48 hrs by sulforhodamine B assay; format: functional
RPMI-8226 = test: Antiproliferative activity against human RPMI8226 cells assessed as growth inhibition after 48 hrs by sulforhodamine B assay; format: functional; settings: RPMI-8226, 48 h
CCRF-CEM = test: Antiproliferative activity against human CCRF-CEM cells assessed as growth inhibition after 48 hrs by sulforhodamine B assay; format: functional
Hs-578T = test: Antiproliferative activity against human Hs578T cells assessed as growth inhibition after 48 hrs by sulforhodamine B assay; format: functional
T47D = test: Antiproliferative activity against human T47D cells assessed as growth inhibition after 48 hrs by sulforhodamine B assay; format: functional
[2] = Haemolytic activity in human erythrocytes assessed as induction of hemolysis at 10 mM after 30 mins relative to H202; format: cell-based, Erythrocyte; settings: read-out: Activity
Erythrocyte [3] = test: Haemolytic activity in human erythrocytes assessed as induction of hemolysis at 2.5 mM after 30 mins relative to H202; format: cell-based; settings: erythrocyte, 0.5 h, 2500 µM
Erythrocyte [4] = test: Haemolytic activity in human erythrocytes assessed as induction of hemolysis at 1.25 mM after 30 mins relative to H202; format: cell-based; settings: erythrocyte, 0.5 h, 1250 µM
[5] = Antioxidant activity assessed as hydroxyl radical scavenging activity after 1 hr by salicylic acid-based Fenton reaction assay; format: functional
[6] = Pro-oxidant activity assessed as increase in bleomycin-Fe2+ induced calf thymus DNA damage at 2 mM after 1 hr by thiobarbituric acid based absorbance analysis
HCT-116 [7] = test: Induction of apoptosis in human HCT116 cells assessed as increase in caspase 3 mRNA expression at 100 nM after 6 hrs hrs by SYBR green dye-based qRT-PCR analysis relative to control; format: functional
HCT-116 [8] = test: Induction of apoptosis in human HCT116 cells assessed as increase in p53 mRNA expression at 100 nM after 6 hrs hrs by SYBR green dye-based qRT-PCR analysis relative to control; format: functional
HCT-116 [9] = test: Reduction in CDK1 mRNA expression in human HCT116 cells at 100 nM after 6 hrs hrs by SYBR green dye-based qRT-PCR analysis relative to control; format: functional; settings: HCT-116, 6 h

N=C(N)c1ccc(-c2ccc(-c3ccc4ccccc4c3)s2)s1
IC50 (WI-38): 81300 nM
GI50 (MDA-MB-231): 1850 nM
GI50 (OVCAR-3): 1890 nM
GI50 (MCF7): 1750 nM
inhibition of growth at 10 µM [1]: 96.7%
GI50 (DU-145): 1830 nM
GI50 (SN12C): 1870 nM
GI50 (RXF 393): 1930 nM
GI50 (CAKI-1): 3110 nM
GI50 (SK-OV-3): 20200 nM
GI50 (OVCAR-5): 1810 nM
GI50 (UACC-62): 2100 nM
GI50 (UACC-257): 16100 nM
GI50 (SK-MEL-2): 2520 nM
GI50 (M14): 2450 nM
GI50 (Malme-3M): 3100 nM
GI50 (LOX IMVI): 1710 nM
GI50 (SNB-75): 1930 nM
GI50 (SNB-19): 1950 nM
GI50 (SF-539): 1970 nM
GI50 (SF-268): 2250 nM
GI50 (NCI-H460): 1950 nM
GI50 (NCI-H23): 2950 nM
GI50 (HOP-62): 2080 nM
GI50 (SR): 1050 nM
GI50 (RPMI-8226): 2300 nM
GI50 (CCRF-CEM): 1870 nM
GI50 (Hs-578T): 2070 nM
GI50 (T47D): 1950 nM
hemolysis at 0.5 h, 10000 µM [2]: 21.1%
Activity (Erythrocyte [3]): Non-Toxic
Activity (Erythrocyte [4]): Non-Toxic
Activity [5]: Active
Activity [6]: Active
fold change (FC) (HCT-116 [7]): 2.59
fold change (FC) (HCT-116 [8]): 1

N=C(N)c1ccc(-c2ccc(-c3cc(Cl)cc(Cl)c3)s2)s1
IC50 (WI-38): 98800 nM
GI50 (MDA-MB-231): 1870 nM
GI50 (OVCAR-3): 1810 nM
GI50 (MCF7): 1340 nM
inhibition of growth at 10 µM [1]: -28.6%
GI50 (DU-145): 1820 nM
GI50 (SN12C): 2020 nM
GI50 (RXF 393): 1850 nM
GI50 (CAKI-1): 1720 nM
GI50 (SK-OV-3): 3620 nM
GI50 (OVCAR-5): 1960 nM
GI50 (UACC-62): 1920 nM
GI50 (UACC-257): 2050 nM
GI50 (SK-MEL-2): 2240 nM
GI50 (M14): 2020 nM
GI50 (Malme-3M): 1850 nM
GI50 (LOX IMVI): 1690 nM
GI50 (SNB-75): 1380 nM
GI50 (SNB-19): 2110 nM
GI50 (SF-539): 1700 nM
GI50 (SF-268): 1960 nM
GI50 (NCI-H460): 2050 nM
GI50 (NCI-H23): 1990 nM
GI50 (HOP-62): 1760 nM
GI50 (SR): 1060 nM
GI50 (RPMI-8226): 2330 nM
GI50 (CCRF-CEM): 2140 nM
GI50 (Hs-578T): 2150 nM
GI50 (T47D): 1800 nM
hemolysis at 0.5 h, 10000 µM [2]: 17%
Activity (Erythrocyte [3]): Non-Toxic
Activity (Erythrocyte [4]): Non-Toxic
Activity [5]: Active
Activity [6]: Active
fold change (FC) (HCT-116 [7]): 1.61
fold change (FC) (HCT-116 [8]): 3.98
inhibition at 0.1 µM (HCT-116 [9]): 79%

COc1cc(OC)cc(-c2ccc(-c3ccc(C(=N)N)o3)o2)c1
IC50 (WI-38): 81600 nM
GI50 (MDA-MB-231): 2350 nM
GI50 (OVCAR-3): 3260 nM
GI50 (MCF7): 1800 nM
inhibition of growth at 10 µM [1]: 55.9%
GI50 (DU-145): 4280 nM
GI50 (SN12C): 2380 nM
GI50 (RXF 393): 1930 nM
GI50 (CAKI-1): 4330 nM
GI50 (SK-OV-3): 14900 nM
GI50 (OVCAR-5): 2340 nM
GI50 (UACC-62): 1980 nM
GI50 (UACC-257): 2410 nM
GI50 (SK-MEL-2): 2440 nM
GI50 (M14): 2070 nM
GI50 (Malme-3M): 2040 nM
GI50 (LOX IMVI): 1790 nM
GI50 (SNB-75): 2200 nM
GI50 (SNB-19): 3020 nM
GI50 (SF-539): 1830 nM
GI50 (SF-268): 3400 nM
GI50 (NCI-H460): 2320 nM
GI50 (NCI-H23): 9250 nM
GI50 (HOP-62): 5650 nM
GI50 (SR): 1880 nM
GI50 (RPMI-8226): 2250 nM
GI50 (CCRF-CEM): 2720 nM
GI50 (Hs-578T): 8120 nM
GI50 (T47D): 2080 nM
hemolysis at 0.5 h, 10000 µM [2]: 19.3%
Activity (Erythrocyte [3]): Non-Toxic
Activity (Erythrocyte [4]): Non-Toxic
Activity [5]: Active
Activity [6]: Active
fold change (FC) (HCT-116 [7]): 4.1
fold change (FC) (HCT-116 [8]): 0.9
